The record followed here is patent US10118918B2, “PRMT5 inhibitors and uses thereof” (Epizyme, Inc., priority 2012, dated 2018).

Sequence of PRMT5/MEP50 (O14744 other isoform, or with tags, fused parts or gaps): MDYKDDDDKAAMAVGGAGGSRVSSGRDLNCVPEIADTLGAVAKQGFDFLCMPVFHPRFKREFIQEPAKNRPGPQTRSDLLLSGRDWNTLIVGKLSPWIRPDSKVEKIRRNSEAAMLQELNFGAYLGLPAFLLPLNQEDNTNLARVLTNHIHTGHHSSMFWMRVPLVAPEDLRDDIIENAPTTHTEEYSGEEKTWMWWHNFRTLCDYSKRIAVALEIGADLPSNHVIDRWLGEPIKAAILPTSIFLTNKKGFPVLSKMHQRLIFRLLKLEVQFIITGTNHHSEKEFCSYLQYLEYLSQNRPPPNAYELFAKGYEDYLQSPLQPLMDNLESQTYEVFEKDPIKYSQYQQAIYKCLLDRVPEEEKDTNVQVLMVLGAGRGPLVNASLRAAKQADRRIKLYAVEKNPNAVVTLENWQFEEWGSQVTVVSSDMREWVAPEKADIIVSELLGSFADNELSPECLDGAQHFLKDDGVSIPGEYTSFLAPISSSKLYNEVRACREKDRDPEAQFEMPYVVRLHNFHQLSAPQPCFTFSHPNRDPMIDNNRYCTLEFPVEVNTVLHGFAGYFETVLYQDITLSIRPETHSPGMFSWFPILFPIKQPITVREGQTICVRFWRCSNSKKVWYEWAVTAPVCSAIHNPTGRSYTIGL
Sequence of PRMT5/MEP50 (Q9BQA1 other isoform, or with tags, fused parts or gaps partner): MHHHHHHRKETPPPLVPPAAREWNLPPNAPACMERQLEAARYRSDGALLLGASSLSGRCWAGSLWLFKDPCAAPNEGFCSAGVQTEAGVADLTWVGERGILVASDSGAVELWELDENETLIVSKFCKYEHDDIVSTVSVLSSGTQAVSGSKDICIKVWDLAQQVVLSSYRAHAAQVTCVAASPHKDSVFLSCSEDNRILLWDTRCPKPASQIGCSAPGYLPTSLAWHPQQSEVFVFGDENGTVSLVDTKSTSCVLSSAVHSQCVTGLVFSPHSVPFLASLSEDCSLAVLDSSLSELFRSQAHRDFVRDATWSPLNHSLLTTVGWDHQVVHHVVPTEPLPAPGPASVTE

The test addresses PRMT5/MEP50 (Homo sapiens (Human), UniProt O14744). Description: PRMT5 Biochemical Assay (PRMT5/MEP50 enzyme assay on peptide substrate, 3H-SAM Flashplate). As to conditions: PRMT5/MEP50 4 nM, 3H-SAM 75 nM, peptide 40 nM. From the text:
S-adenosylmethionine (SAM), S-adenosylhomocysteine (SAH), bicine, KCl, Tween20, dimethylsulfoxide (DMSO), bovine skin gelatin (BSG), and Tris(2-carboxyethyl)phosphine hydrochloride solution (TCEP) were purchased from Sigma-Aldrich at the highest level of purity possible. ^3H-SAM was purchase from American Radiolabeled Chemicals with a specific activity of 80 Ci/mmol. 384-well streptavidin Flashplates were purchased from PerkinElmer.
Peptide representative of human histone H4 residues 1-15 was synthesized with a C-terminal linker-affinity tag motif and a C-terminal amide cap by 21st Century Biochemicals. The peptide was high high-performance liquid chromatography (HPLC) purified to greater than 95% purity and confirmed by liquid chromatography mass spectrometry (LC-MS). The sequence was Ac-[…][K-Biot]-amide (SEQ ID NO.: 3).
Full-length human PRMT5 (NM_006109.3) transcript variant 1 clone was amplified from a fetal brain cDNA library, incorporating flanking 5′ sequence encoding a FLAG tag ([…]) (SEQ ID NO.: 4) fused directly to Ala 2 of PRMT5. Full-length human MEP50 (NM_024102) clone was amplified from a human testis cDNA library incorporating a 5′ sequence encoding a 6-histidine tag (MHHHHHH) (SEQ ID NO.: 5) fused directly to Arg 2 of MEP50. The amplified genes were sublconed into pENTR/D/TEV (Life Technologies) and subsequently transferred by Gateway™ attL x attR recombination to pDEST8 baculvirus expression vector (Life Technologies).
Recombinant baculovirus and Baculovirus-Infected Insect Cells (BIIC) were generated according to Bac-to-Bac kit instructions (Life Technologies) and Wasilko, 2006, respectively. Protein over-expression was accomplished by infecting exponentially growing Spodoptera frugiperda (SF9) cell culture at 1.2×10^6 cell/ml with a 5000 fold dilution of BIIC stock. Infections were carried out at 27° C. for 72 hours, harvested by centrifugation, and stored at −80° C. for purification.
Flag-PRMT5/6His-MeP50 was eluted with 300 mM Imidazole in the same buffer. The purity of recovered protein was 87%. Reference: Wasilko, D. J. and S. E. Lee: “TIPS: titerless infected-cells preservation and scale-up” Bioprocess J., 5 (2006), pp. 29-32.
General Procedure for PRMT5/MEP50 Enzyme Assays on Peptide Substrates.
The assays were all performed in a buffer consisting of 20 mM Bicine (pH=7.6), 1 mM TCEP, 0.005% BSG, and 0.002% Tween20, prepared on the day of use. Compounds in 100% DMSO (1 ul) were spotted into a polypropylene 384-well V-bottom plates (Greiner) using a Platemate Plus outfitted with a 384-channel head (Thermo Scientific). DMSO (1 ul) was added to Columns 11, 12, 23, 24, rows A-H for the maximum signal control and 1 ul of SAH, a known product and inhibitor of PRMT5/MEP50, was added to columns 11, 12, 23, 24, rows I-P for the minimum signal control. A cocktail (40 ul) containing the PRMT5/MEP50 enzyme and the peptide was added by Multidrop Combi (Thermo-Fisher). The compounds were allowed to incubate with PRMT5/MEP50 for 30 min at 25 degrees Celsius, then a cocktail (10 ul) containing ^3H-SAM was added to initiate the reaction (final volume=51 ul). The final concentrations of the components were as follows: PRMT5/MEP50 was 4 nM, ^3H-SAM was 75 nM, peptide was 40 nM, SAH in the minimum signal control wells was 100 uM, and the DMSO concentration was 1%. The assays were stopped by the addition of non-radioactive SAM (10 ul) to a final concentration of 600 uM, which dilutes the ^3H-SAM to a level where its incorporation into the peptide substrate is no longer detectable. 50 ul of the reaction in the 384-well polypropylene plate was then transferred to a 384-well Flashplate and the biotinylated peptides were allowed to bind to the streptavidin surface for at least 1 hour before being washed three times with 0.1% Tween20 in a Biotek ELx405 plate washer. […]
Usually IC50 stands for the point on the concentration scale where inhibition reaches its midpoint. Turning to `C[C@@H](Oc1cccc2cccnc12)C(=O)NC[C@H](O)CN1Cc2ccccc2C1` [compound 5, (R)—N—((S)-2-hydroxy-3-(isoindolin-2-yl)propyl)-2-(quinolin-8-yloxy)propanamide], the concentration for half-maximal inhibition (IC50) was less than 0.1 µM.
Next, `O=C(COc1ccccc1-c1cc[nH]n1)NCC(O)CN1Cc2ccccc2C1` (stereo not shown) [compound 7]: 0.101 to 1 µM; `O=C(NCC(O)CN1Cc2ccccc2C1)c1cccc(-c2ccccn2)c1` (stereo not shown) [compound 13, N-(2-hydroxy-3-(isoindolin-2-yl)propyl)-3-(pyridin-2-yl)benzamide]: 0.101 to 1 µM; `CN(C)S(=O)(=O)c1ccccc1OCC(=O)NCC(O)CN1Cc2ccccc2C1` (stereo not shown) [compound 15, 2-(2-(N,N-dimethylsulfamoyl)phenoxy)-N-(2-hydroxy-3-(isoindolin-2-yl)propyl)acetamide]: less than 0.1 µM.
Next, `O=C(COc1cccc2cccnc12)NCC(O)CN1Cc2ccccc2C1` (stereo not shown) [compound 19, N-(2-hydroxy-3-(isoindolin-2-yl)propyl)-2-(quinolin-8-yloxy)acetamide]: 0.101 to 1 µM.
`O=C(NC[C@H](O)CN1Cc2ccccc2C1)c1cccc(NC2CCOCC2)c1` [compound 28]: the 50% inhibitory concentration (IC50) is less than 0.1 µM.
Next, `O=C(NC[C@H](O)CN1Cc2ccccc2C1)c1cc(NC2CCOCC2)ncn1` [compound 29]: less than 0.1 µM.
The result for `Cc1nc(NC2COC2)cc(C(=O)NC[C@H](O)CN2Cc3ccccc3C2)n1` [compound 35] reads 0.101 to 1 µM; that for `O=C(NC[C@H](O)CN1Cc2ccccc2C1)c1cc(NC2COC2)nc(C(F)(F)F)n1` [compound 36], 0.101 to 1 µM.
The result for `O=C(CCc1nc2ccccc2[nH]1)NCC(O)CN1Cc2ccccc2C1` (stereo not shown) [compound 37] reads 0.101 to 1 µM.
Consider `O=C(NC[C@H](O)CN1Cc2ccccc2C1)c1cc(NC2COC2)nc(N2CCOCC2)n1` [compound 38], for which the IC50 is less than 0.1 µM.
In the case of `CC(=O)N1CCC(Nc2cc(C(=O)NC[C@H](O)CN3Cc4ccccc4C3)ccn2)CC1` [compound 40], the IC50 was less than 0.1 µM.
`O=C(NC[C@H](O)CN1CCc2ccccc21)c1cc(NC2COC2)ncn1` [compound 42]: the IC50 is greater than 10 µM.
Regarding `CC(=O)N1CCC(Nc2cc(C(=O)NC[C@H](O)CN3CCc4ccccc43)ncn2)CC1` [compound 43], the IC50 is greater than 10 µM.
The result for `CC(=O)N1CCC(Nc2cc(C(=O)NC[C@H](O)CN3CCc4ccccc43)ccn2)CC1` [compound 44] reads greater than 10 µM; that for `O=C(NC[C@H](O)CN1CCCCc2ccccc21)c1cc(NC2COC2)ncn1` [compound 45], greater than 10 µM; that for `CC(=O)N1CC(Nc2cc(C(=O)NC[C@H](O)CN3CCCCc4ccccc43)ncn2)C1` [compound 46], greater than 10 µM.
As to `CC(=O)N1CCC(Nc2cc(C(=O)NC[C@H](O)CN3CCCCc4ccccc43)ncn2)CC1` [compound 47], the IC50 is 1 to 10 µM.
Turning to `O=C(NC[C@H](O)CN1CCCc2ccccc2C1)c1cc(NC2COC2)ncn1` [compound 48], the half-inhibitory concentration (IC50) is greater than 10 µM.
The result for `CC(=O)N1CC(Nc2cc(C(=O)NC[C@H](O)CN3CCCc4ccccc4C3)ncn2)C1` [compound 49] reads 1 to 10 µM.
The result for `CC(=O)N1CCC(Nc2cc(C(=O)NC[C@H](O)CN3CCCc4ccccc4C3)ncn2)CC1` [compound 50] reads greater than 10 µM; that for “N-(2-hydroxy-3-(isoindolin-2-yl)propyl)-2-((4-methyl-3,4-dihydro-2H-benzo[b][1,4]oxazin-5-yl)oxy)acetamide [compound 10]”, 0.101 to 1 µM.
